The term MIC denotes the lowest concentration that inhibits growth of the organism. Higher therefore signals weaker potency.

Converted amounts (≈) assume the structure as drawn.

The experiment relates to Escherichia coli ATCC 25922. Kind of experiment: Minimal Inhibitory Concentration (MIC) determination, broth microdilution. The experiment is classed as cell-based. The note with it: ATCC25922; strain Escherichia coli ATCC 25922; broth microdilution per CLSI M07-A10; 18-24 hours at 35±2° C.; lowest concentration for complete growth inhibition. In outline:
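Broth microdilution followed CLSI M07-A10, with 2-fold compound dilutions and an inoculum from a 0.5 McFarland suspension diluted 1:200 in broth. Plates were incubated 18–24 h at 35±2° C in ambient air. MIC (μg/mL) was the lowest concentration giving no visible growth.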
As to `C[C@H](C(=O)Nc1cc(F)c2c(c1)CC(CN(C)CCC1CN(c3cnc4c(n3)NC(=O)CO4)C(=O)O1)C2)N(C)C` (stereo partly drawn) [Example 58, (2R)-2-(Dimethylamino)-N-[7-fluoro-2-[[methyl-[2-[2-oxo-3-(3-oxo-4H-pyrazino[2,3-b][1,4]oxazin-6-yl)oxazolidin-5-yl]ethyl]amino]methyl]indan-5-yl]propanamide], the minimal inhibitory concentration (MIC) was determined as 0.25 µg/mL (≈ 0.45 µM).

For the compound `CC(C)(N)C(=O)Nc1cc(F)c2c(c1)CC(CNCCC1CN(c3cnc4c(n3)NC(=O)CO4)C(=O)O1)C2` (stereo not drawn) [Example 43, 2-amino-N-[7-fluoro-2-[[2-[2-oxo-3-(3-oxo-4H-pyrazino[2,3-b][1,4]oxazin-6-yl)oxazolidin-5-yl]ethylamino]methyl]indan-5-yl]-2-methyl-propanamide], the MIC stood at 0.25 µg/mL (≈ 0.474 µM).

Take `C[C@H](C(=O)Nc1cc(F)c2c(c1)C(O)C(CNCC[C@@H]1CN(c3cnc4c(n3)NC(=O)CO4)C(=O)O1)C2)N(C)C` (stereo partly drawn) [Example 66, (2R)-2-(Dimethylamino)-N-[7-fluoro-3-hydroxy-2-[[2-[(5R)-2-oxo-3-(3-oxo-4H-pyrazino[2,3-b][1,4]oxazin-6-yl)oxazolidin-5-yl]ethylamino]methyl]indan-5-yl]propanamide]: the MIC was 4 µg/mL (≈ 7.17 µM).

The compound `O=C1COc2ncc(N3CC(CCNCC4Cc5cc(NC(=O)[C@@H]6C[C@H](O)CN6)cc(F)c5C4)OC3=O)nc2N1` (stereo partly drawn) [Example 46, (2S,4S)-N-[7-fluoro-2-[[2-[2-oxo-3-(3-oxo-4H-pyrazino[2,3-b][1,4]oxazin-6-yl)oxazolidin-5-yl]ethylamino]methyl]indan-5-yl]-4-hydroxy-pyrrolidine-2-carboxamide] registered a minimal inhibitory concentration (MIC) of 0.5 µg/mL (≈ 0.9 µM).

In the case of `C[C@@H](C(=O)Nc1cc(F)c2c(c1)CC(CNCCC1CN(c3cnc4c(n3)NC(=O)CO4)C(=O)O1)C2)N(C)C` (stereo partly drawn) [Example 9], the MIC was 0.125 µg/mL (≈ 0.231 µM).

With `O=C(CN1CCC1)Nc1cc(F)c2c(c1)CC(CNCCC1CN(c3cnc4c(n3)NC(=O)CO4)C(=O)O1)C2` (stereo not drawn) [Example 8, 2-(azetidin-1-yl)-N-[7-fluoro-2-[2-[2-oxo-3-(3-oxo-4H-pyrazino[2,3-b][1,4]oxazin-6-yl)oxazolidin-5-yl]ethylaminomethyl]indan-5-yl]acetamide], the MIC is 0.125 µg/mL (≈ 0.232 µM).

In turn, `CN1C[C@H](O)C[C@H]1C(=O)Nc1cc(F)c2c(c1)CC(CNCCC1CN(c3cnc4c(n3)NC(=O)CO4)C(=O)O1)C2` (stereo partly drawn) [Example 49, (2S,4R)—N-[7-Fluoro-2-[[2-[2-oxo-3-(3-oxo-4H-pyrazino[2,3-b][1,4]oxazin-6-yl)oxazolidin-5-yl]ethylamino]methyl]indan-5-yl]-4-hydroxy-1-methyl-pyrrolidine-2-carboxamide] showed an MIC of 0.25 µg/mL (≈ 0.439 µM).

On to `O=C1COc2ncc(N3CC4(CCN(CC5Cc6cc(NC(=O)[C@@H]7C[C@H](O)CN7)cc(F)c6C5)CC4)OC3=O)nc2N1` (stereo partly drawn) [Example 57, (2S,4S)—N-[7-Fluoro-2-[[2-oxo-3-(3-oxo-4H-pyrazino[2,3-b][1,4]oxazin-6-yl)-1-oxa-3,8-diazaspiro[4.5]decan-8-yl]methyl]indan-5-yl]-4-hydroxy-pyrrolidine-2-carboxamide], for which the MIC was not above 0.06 µg/mL.

Compound `O=C(O)C(F)(F)F.O=C1COc2ncc(N3CC4(CCN(CC5Cc6cc(NC(=O)[C@H]7NCC[C@@H]7O)cc(F)c6C5)CC4)OC3=O)nc2N1` (stereo partly drawn) [Example 54, (2S,3S)—N-[7-Fluoro-2-[[2-oxo-3-(3-oxo-4H-pyrazino[2,3-b][1,4]oxazin-6-yl)-1-oxa-3,8-diazaspiro[4.5]decan-8-yl]methyl]indan-5-yl]-3-hydroxy-pyrrolidine-2-carboxamide; 2,2,2-trifluoroacetic Acid] registered a minimum inhibitory concentration (MIC) of 0.25 µg/mL.

In turn, `O=C1COc2ncc(N3CC(CCNCC4Cc5cc(NC(=O)[C@H]6C[C@H](O)CN6)cc(F)c5C4)OC3=O)nc2N1` (stereo partly drawn) [Example 47, (2R,4S)-N-[7-fluoro-2-[[2-[2-oxo-3-(3-oxo-4H-pyrazino[2,3-b][1,4]oxazin-6-yl)oxazolidin-5-yl]ethylamino]methyl]indan-5-yl]-4-hydroxy-pyrrolidine-2-carboxamide] registered a minimum inhibitory concentration (MIC) of 0.25 µg/mL (≈ 0.45 µM).

`C[C@H](C(=O)Nc1cc(F)c2c(c1F)CC(O)(CNCC1CN(c3cnc4c(n3)NC(=O)CO4)C(=O)O1)C2)N(C)C` (stereo partly drawn) [Example 30]: the MIC was found to be 1 µg/mL (≈ 1.78 µM).

`N[C@H](CO)C(=O)Nc1cc(F)c2c(c1)CC(CNCCC1CN(c3cnc4c(n3)NC(=O)CO4)C(=O)O1)C2` (stereo partly drawn) [Example 38, (2R)-2-amino-N-[7-fluoro-2-[[2-[2-oxo-3-(3-oxo-4H-pyrazino[2,3-b][1,4]oxazin-6-yl)oxazolidin-5-yl]ethylamino]methyl]indan-5-yl]-3-hydroxy-propanamide] yielded an MIC of 0.5 µg/mL (≈ 0.944 µM).

For the origin of these results see patent US20240254140A1, “COMPOUNDS AND THEIR USE IN THE TREATMENT OF BACTERIAL INFECTION” (Hoffmann-La Roche Inc., priority 2021, published 2024).
